Assay results published in ChEMBL document CHEMBL1138648, “Synthesis of new N-(2-(trifluoromethyl)pyridin-4-yl)anthranilic acid derivatives and their evaluation as anticancer agents” (2004).

Columns and labels:
Assay type in all cases: functional
M14 = test: Growth inhibitory activity against Melanoma M14 cell line was determined; settings: Homo sapiens
K562 = test: Growth inhibitory activity against Leukemia K-562 cell line was determined; settings: Homo sapiens
U-251 = test: Growth inhibitory activity against CNS cancer U251 cell line was determined; settings: Homo sapiens
MOLT-4 = test: Growth inhibitory activity against Leukemia MOLT-4 cell line was determined; settings: Homo sapiens
UACC-62 = test: Growth inhibitory activity against Melanoma UACC-62 cell line was determined; settings: Homo sapiens
SF-268 [1] = test: Growth inhibitory activity against CNS cancer SF-268 cell line was determined; settings: Homo sapiens
SF-295 = test: Growth inhibitory activity against CNS cancer SF-295 cell line was determined; settings: Homo sapiens
SF-539 = test: Growth inhibitory activity against CNS cancer SF-539 cell line was determined; settings: Homo sapiens
SNB-19 = test: Growth inhibitory activity against CNS cancer SNB-19 cell line was determined; settings: Homo sapiens
SNB-75 = test: Growth inhibitory activity against CNS cancer SNB-75 cell line was determined; settings: Homo sapiens
CCRF-CEM = test: Growth inhibitory activity against Leukemia CCRF-CEM cell line was determined; settings: Homo sapiens
LOX IMVI = test: Growth inhibitory activity against Melanoma LOX IMVI cell line; settings: Homo sapiens
SK-MEL-5 = test: Growth inhibitory activity against Melanoma SK-MEL-5 cell line was determined; settings: Homo sapiens
A498 = test: Growth inhibitory activity against Renal cancer A498 cell line was determined; settings: Homo sapiens
ACHN = test: Growth inhibitory activity against Renal cancer ACHN cell line was determined; settings: Homo sapiens
HT-29 = test: Growth inhibitory activity against colon cancer HT-29 cell line was determined; settings: Homo sapiens
MDA-MB-435 = test: Growth inhibitory activity against Breast cancer MDA-MB-435 cell line was determined; settings: Homo sapiens
NCI/ADR-RES = test: Growth inhibitory activity against Breast cancer NCI/ADR-RES cell line was determined; settings: Homo sapiens
MDA-MB-231 = test: Growth inhibitory activity against Breast cancer MDA-MB-231/ATCC cell line was determined; settings: Homo sapiens
EKVX = test: Growth inhibitory activity against non small cell lung cancer EKVX cell line was determined; settings: Homo sapiens
NCI-H460 [2] = test: Growth inhibitory activity against non small cell lung cancer H460 cell line was determined; settings: Homo sapiens
NCI-H522 = test: Growth inhibitory activity against non small cell lung cancer H522 cell line was determined; settings: Homo sapiens
HOP-62 = test: Growth inhibitory activity against non small cell lung cancer HOP-62 cell line was determined; settings: Homo sapiens
NCI-H23 = test: Growth inhibitory activity against non small cell lung cancer NCI-H23 cell line was determined; settings: Homo sapiens
NCI-H226 = test: Growth inhibitory activity against non small cell lung cancer NCI-H226 cell line was determined; settings: Homo sapiens
A549 = test: Growth inhibitory activity against non small cell lung cancer A549/ATCC cells; settings: Homo sapiens
NCI-H322M = test: Growth inhibitory activity against non small cell lung cancer NCI-H322M cell line was determined; settings: Homo sapiens
CAKI-1 [3] = test: Growth inhibitory activity against Renal cancer CAKI-1 cell line […]; settings: Homo sapiens
HOP-92 = test: Growth inhibitory activity against non small cell lung cancer HOP-92 cell line was determined; settings: Homo sapiens
NCI-H460 [4] = test: In vitro percent of proliferation of vehicle treated NCI-H460 human lung cell lines was determined at 0.0010 M concentration
KM12 = test: Growth inhibitory activity against colon cancer KM12 cell line was determined; settings: Homo sapiens
MCF7 [5] = test: Growth inhibitory activity against Breast cancer MCF-7 cell line was determined; settings: Homo sapiens
HL-60 = test: Growth inhibitory activity against Leukemia HL-60(TB) cell line was determined; settings: Homo sapiens
RPMI-8226 = test: Growth inhibitory activity against Leukemia RPMI-8226 cell line was determined; settings: Homo sapiens
SR = test: Growth inhibitory activity against Leukemia SR cell line was determined; settings: Homo sapiens
786-0 = test: Growth inhibitory activity against Renal cancer 786-0 cell line was determined; settings: Homo sapiens
SN12C = test: Growth inhibitory activity against Renal cancer SN12C cell line was determined; settings: Homo sapiens
TK-10 = test: Growth inhibitory activity against Renal cancer TK-10 cell line was determined; settings: Homo sapiens
HCT-15 = test: Growth inhibitory activity against colon cancer HCT-15 cell line was determined; settings: Homo sapiens
SW-620 = test: Growth inhibitory activity against colon cancer SW-620 cell line was determined; settings: Homo sapiens
BT-549 = test: Growth inhibitory activity against Breast cancer BT-549 cell line was determined; settings: Homo sapiens
PC-3 = test: Growth inhibitory activity against Prostate cancer PC-3 cell line was determined; settings: Homo sapiens
HCT-116 = test: Growth inhibitory activity against colon cancer HCT116 cell line was determined; settings: Homo sapiens
Hs-578T = test: Growth inhibitory activity against Breast cancer HS 578T cell line was determined; settings: Homo sapiens
HCC 2998 = test: Growth inhibitory activity against colon cancer HCC2998 cell line was determined; settings: Homo sapiens
OVCAR-3 = test: Growth inhibitory activity against Ovarian cancer OVCAR-3 cell line was determined; settings: Homo sapiens
OVCAR-4 = test: Growth inhibitory activity against Ovarian cancer OVCAR-4 cell line was determined; settings: Homo sapiens
OVCAR-5 = test: Growth inhibitory activity against Ovarian cancer OVCAR-5 cell line was determined; settings: Homo sapiens
OVCAR-8 = test: Growth inhibitory activity against Ovarian cancer OVCAR-8 cell line was determined; settings: Homo sapiens
SK-OV-3 = test: Growth inhibitory activity against Ovarian cancer SK-OV-3 cell line was determined; settings: Homo sapiens
DU-145 = test: Growth inhibitory activity against Prostate cancer DU-145 cell line was determined; settings: Homo sapiens
SF-268 [6] = test: In vitro percent of proliferation of vehicle treated SF-268 human CNS cell lines was determined at 0.0010 M concentration
MCF7 [7] = test: In vitro percent of proliferation of vehicle treated MCF-7 human breast cell lines was determined at 0.0010 M concentration
UACC-257 = test: Growth inhibitory activity against Melanoma UACC-257 cell line was determined; settings: Homo sapiens
SK-MEL-28 = test: Growth inhibitory activity against Melanoma SK-MEL-28 cell line was determined; settings: Homo sapiens
CAKI-1 [8] = test: Growth inhibitory activity against Renal cancer CAKI-1 cell line was determined; settings: Homo sapiens
RXF 393 = test: Growth inhibitory activity against Renal cancer RXF 393 cell line was determined; settings: Homo sapiens
COLO 205 = test: Growth inhibitory activity against colon cancer COLO 205 cell line was determined; settings: Homo sapiens

O=C(Oc1ccccc1Cl)c1ccccc1Nc1ccnc(C(F)(F)F)c1
GI50 (M14): 0.03 µM
GI50 (K562): 0.05 µM
GI50 (U-251): 0.27 µM
GI50 (MOLT-4): 0.02 µM
GI50 (UACC-62): 0.31 µM
GI50 (SF-268 [1]): 0.22 µM
GI50 (SF-295): 0.24 µM
GI50 (SF-539): 0.58 µM
GI50 (SNB-19): 7.4 µM
GI50 (SNB-75): 680 nM
GI50 (CCRF-CEM): 30 nM
GI50 (LOX IMVI): 0.02 µM
GI50 (SK-MEL-5): 0.26 µM
GI50 (A498): 3.9 µM
GI50 (ACHN): 0.28 µM
GI50 (HT-29): 0.39 µM
GI50 (MDA-MB-435): 0.13 µM
GI50 (NCI/ADR-RES): 0.32 µM
GI50 (MDA-MB-231): 0.32 µM
GI50 (EKVX): 8.6 µM
GI50 (NCI-H460 [2]): 0.66 µM
GI50 (NCI-H522): 0.51 µM
GI50 (HOP-62): 2.7 µM
GI50 (NCI-H23): 0.25 µM
GI50 (NCI-H226): 0.29 µM
GI50 (A549): 0.73 µM
GI50 (NCI-H322M): 4.8 µM
GI50 (CAKI-1 [3]): 290 nM
GI50 (HOP-92): 20 nM
Proliferation (NCI-H460 [4]): 3%
GI50 (KM12): 0.33 µM
GI50 (MCF7 [5]): 0.28 µM
GI50 (HL-60): 0.47 µM
GI50 (RPMI-8226): 0.24 µM
GI50 (SR): 0.03 µM
GI50 (786-0): 0.25 µM
GI50 (SN12C): 0.33 µM
GI50 (TK-10): 0.65 µM
GI50 (HCT-15): 0.22 µM
GI50 (SW-620): 0.36 µM
GI50 (BT-549): 0.34 µM
GI50 (PC-3): 0.3 µM
GI50 (HCT-116): 1.8 µM
GI50 (Hs-578T): 0.32 µM
GI50 (HCC 2998): 2.2 µM
GI50 (OVCAR-3): 0.22 µM
GI50 (OVCAR-4): 0.26 µM
GI50 (OVCAR-5): 0.46 µM
GI50 (OVCAR-8): 0.24 µM
GI50 (SK-OV-3): 8 µM
GI50 (DU-145): 4.3 µM
Proliferation (SF-268 [6]): 17%
Proliferation (MCF7 [7]): 6%

CCOC(=O)CNC(=O)c1ccccc1Nc1ccnc(C(F)(F)F)c1
GI50 (M14): 25 µM
GI50 (K562): 18 µM
GI50 (U-251): 18 µM
GI50 (MOLT-4): 16 µM
GI50 (UACC-62): 17 µM
GI50 (SF-268 [1]): 20 µM
GI50 (SF-295): 71 µM
GI50 (SF-539): 28 µM
GI50 (SNB-19): 30 µM
GI50 (CCRF-CEM): 2200 nM
GI50 (LOX IMVI): 17 µM
GI50 (SK-MEL-5): 10 µM
GI50 (A498): 64 µM
GI50 (ACHN): 34 µM
GI50 (HT-29): 29 µM
GI50 (MDA-MB-435): 39 µM
GI50 (NCI/ADR-RES): 51 µM
GI50 (MDA-MB-231): 24 µM
GI50 (EKVX): 31 µM
GI50 (NCI-H460 [2]): 20 µM
GI50 (NCI-H522): 22 µM
GI50 (HOP-62): 21 µM
GI50 (NCI-H23): 22 µM
GI50 (NCI-H226): 100 µM
GI50 (A549): 29 µM
GI50 (NCI-H322M): 32 µM
GI50 (HOP-92): 50 nM
GI50 (UACC-257): 69 µM
Proliferation (NCI-H460 [4]): 19%
GI50 (KM12): 27 µM
GI50 (MCF7 [5]): 25 µM
GI50 (HL-60): 33 µM
GI50 (RPMI-8226): 11 µM
GI50 (SR): 17 µM
GI50 (SK-MEL-28): 23 µM
GI50 (786-0): 29 µM
GI50 (SN12C): 24 µM
GI50 (TK-10): 37 µM
GI50 (CAKI-1 [8]): 16 µM
GI50 (HCT-15): 29 µM
GI50 (SW-620): 20 µM
GI50 (BT-549): 36 µM
GI50 (PC-3): 22 µM
GI50 (RXF 393): 19 µM
GI50 (HCT-116): 21 µM
GI50 (Hs-578T): 46 µM
GI50 (COLO 205): 19 µM
GI50 (HCC 2998): 71 µM
GI50 (OVCAR-3): 24 µM
GI50 (OVCAR-4): 35 µM
GI50 (OVCAR-5): 26 µM
GI50 (OVCAR-8): 26 µM
GI50 (SK-OV-3): 29 µM
GI50 (DU-145): 27 µM
Proliferation (SF-268 [6]): 59%
Proliferation (MCF7 [7]): 60%
